We go through 1 molecule from patent publication US10774094B2, “Crystal forms and salt forms of 7h-pyrrolo[2,3-d]pyrimidine compounds and preparation method thereof” (Wuxi Fortune Pharmaceutical Co., Ltd, priority 2016, dated 2020).

Experiment [1] deals with T1, Recombinant human JAK2 (Homo sapiens, UniProt O60674).
T1 construct: purchased Life technology
Put plainly: In-vitro activity test of JAK2 kinase (LANCE Ultra). It is filed as biochemical. As to the method:
(§1) Recombinant human JAK1, JAK2, and JAK3 […] were purchased from Life technology. LANCE Ultra ULight™-JAK-1 (Tyr1023) peptide and LANCE Eu-W1024 Anti-phosphotyrosine (PT66) both were purchased from PerkinElmer. The plates were read using a multiplex enzyme reader Envision (PerkinElmer).
(§2) The test compounds were subjected to 3-fold concentration gradient dilution to afford 11 final concentrations ranging from 10 uM to 0.17 nM; two wells were formed for each concentration; and the content of DMSO in the detection reaction was 1%.
0.02 nM of JAK2 protein kinase, 50 nM of LANCE Ultra ULight™-JAK-1 (Tyr1023) peptide, 12 uM of ATP, 50 mM of HEPES (pH 7.5), 10 mM of MgCl2, 1 mM of EGTA, 2 mM of DTT, and 0.01% of BRIJ-35 were included. The assay plate was a White Proxiplate 384-Plus plate (PerkinElmer). The reaction was performed at room temperature for 60 minutes; and the reaction system was 10 ul.
(§3) 10 ul of the detection reagent was added to a reaction plate, wherein the final concentration of LANCE Eu-W1024 Anti-phosphotyrosine (PT66) was 2 nM, and the final concentration of EDTA was 10 mM. The reagents were incubated for 60 minutes at room temperature; and the plate was read with Envision instrument.
The reading was converted to an inhibition rate by the following formula: (%)=(Min−Ratio)/(Max−Min)*100%. IC50 data were measured by 4-parameter curve fitting (Model 205 in XLFIT5, iDBS). […]
Background: TR-FRET usually uses a lanthanide donor and a delayed reading to cut background.

Experiment [2] deals with T2, Recombinant human JAK1 (Homo sapiens, UniProt P23458).
T2 construct: purchased Life technology
As to the kind of experiment: In-vitro activity test of JAK1 kinase (LANCE Ultra). It is filed as biochemical. As to the method:
as §1, §2
2 nM of JAK1 protein kinase, 50 nM of LANCE Ultra ULight™-JAK-1 (Tyr1023) peptide, 38 uM of ATP, 50 mM of HEPES (pH 7.5), 10 mM of MgCl2, 1 mM of EGTA, 2 mM of DTT, and 0.01% of BRIJ-35 were included. The assay plate was a White Proxiplate 384-Plus plate (PerkinElmer). The reaction was performed at room temperature for 90 minutes; and the reaction system was 10 ul.
as §3
The reading was converted to an inhibition rate by the following formula: […]. IC50 data were measured by 4-parameter curve fitting (Model 205 in XLFIT5, iDBS). Seen Table 9 for details.

T2 sequence (P23458 whole entry): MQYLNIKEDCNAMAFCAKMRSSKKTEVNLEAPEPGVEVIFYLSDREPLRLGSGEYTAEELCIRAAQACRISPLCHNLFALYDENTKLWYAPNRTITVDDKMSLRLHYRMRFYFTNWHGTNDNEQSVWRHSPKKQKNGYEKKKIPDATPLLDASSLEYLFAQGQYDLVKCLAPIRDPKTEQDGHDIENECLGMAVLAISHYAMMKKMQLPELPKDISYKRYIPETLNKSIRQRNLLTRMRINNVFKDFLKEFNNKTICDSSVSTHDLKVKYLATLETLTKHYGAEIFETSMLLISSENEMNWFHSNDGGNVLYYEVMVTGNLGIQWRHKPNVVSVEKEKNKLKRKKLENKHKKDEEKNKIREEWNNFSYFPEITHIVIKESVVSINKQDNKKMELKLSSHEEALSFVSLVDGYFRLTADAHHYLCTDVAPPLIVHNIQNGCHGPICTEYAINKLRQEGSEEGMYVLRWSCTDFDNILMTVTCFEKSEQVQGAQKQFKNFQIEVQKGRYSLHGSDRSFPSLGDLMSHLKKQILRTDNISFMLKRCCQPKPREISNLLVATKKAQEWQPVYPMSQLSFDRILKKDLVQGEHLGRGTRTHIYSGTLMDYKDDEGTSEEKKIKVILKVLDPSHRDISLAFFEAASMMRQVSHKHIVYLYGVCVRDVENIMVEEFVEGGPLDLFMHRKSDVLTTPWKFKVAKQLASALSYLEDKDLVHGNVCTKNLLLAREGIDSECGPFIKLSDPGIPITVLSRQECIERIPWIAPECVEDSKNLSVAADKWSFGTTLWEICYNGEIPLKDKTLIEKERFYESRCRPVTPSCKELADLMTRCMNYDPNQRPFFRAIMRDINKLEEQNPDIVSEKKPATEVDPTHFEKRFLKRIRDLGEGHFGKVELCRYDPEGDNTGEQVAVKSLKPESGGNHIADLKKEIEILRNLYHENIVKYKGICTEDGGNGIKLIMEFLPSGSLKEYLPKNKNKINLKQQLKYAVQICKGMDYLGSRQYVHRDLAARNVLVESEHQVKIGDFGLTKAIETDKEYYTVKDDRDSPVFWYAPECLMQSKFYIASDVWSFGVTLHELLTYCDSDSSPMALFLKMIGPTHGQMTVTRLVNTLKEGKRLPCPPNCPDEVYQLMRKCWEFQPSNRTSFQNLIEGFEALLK
T1 sequence (O60674 whole entry): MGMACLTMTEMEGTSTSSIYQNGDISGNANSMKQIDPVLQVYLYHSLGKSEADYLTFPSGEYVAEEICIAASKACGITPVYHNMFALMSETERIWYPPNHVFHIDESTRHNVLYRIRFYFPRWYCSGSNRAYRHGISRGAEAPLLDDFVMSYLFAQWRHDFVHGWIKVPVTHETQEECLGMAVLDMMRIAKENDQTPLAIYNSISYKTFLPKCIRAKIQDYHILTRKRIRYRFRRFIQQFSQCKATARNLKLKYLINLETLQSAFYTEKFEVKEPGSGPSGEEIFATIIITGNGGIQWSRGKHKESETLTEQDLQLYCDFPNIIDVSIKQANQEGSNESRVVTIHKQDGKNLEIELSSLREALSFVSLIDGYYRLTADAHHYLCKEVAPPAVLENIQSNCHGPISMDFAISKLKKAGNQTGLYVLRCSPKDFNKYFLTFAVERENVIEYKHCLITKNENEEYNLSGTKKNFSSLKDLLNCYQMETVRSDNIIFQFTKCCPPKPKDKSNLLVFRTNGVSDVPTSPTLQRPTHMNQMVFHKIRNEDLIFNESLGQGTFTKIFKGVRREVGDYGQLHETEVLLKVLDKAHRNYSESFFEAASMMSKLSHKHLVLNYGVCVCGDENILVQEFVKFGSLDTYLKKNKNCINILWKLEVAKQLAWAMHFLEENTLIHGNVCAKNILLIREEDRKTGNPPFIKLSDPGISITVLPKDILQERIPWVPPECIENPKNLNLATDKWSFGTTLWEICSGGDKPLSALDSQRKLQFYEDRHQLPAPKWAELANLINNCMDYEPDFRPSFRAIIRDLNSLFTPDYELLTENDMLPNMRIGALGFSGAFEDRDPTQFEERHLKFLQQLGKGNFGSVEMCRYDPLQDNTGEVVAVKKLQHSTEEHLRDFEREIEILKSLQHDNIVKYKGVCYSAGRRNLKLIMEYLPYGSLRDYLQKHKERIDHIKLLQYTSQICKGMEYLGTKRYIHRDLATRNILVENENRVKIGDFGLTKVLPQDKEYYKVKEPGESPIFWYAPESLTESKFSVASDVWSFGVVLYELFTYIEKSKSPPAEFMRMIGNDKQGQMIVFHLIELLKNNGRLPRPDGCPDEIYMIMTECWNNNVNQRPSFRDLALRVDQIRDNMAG

By IC50 is commonly meant the midpoint of a concentration-inhibition curve. Turning to `CN(c1ncnc2[nH]ccc12)[C@@H]1CCn2cc(C#N)nc2C1` (single isomer, unassigned) [Compound 1, 7-[methyl-[7-hydropyrrolo[2,3-d]pyrimidin-4-yl]amino]-5,6,7,8-tetrahydroimidazo[1,2-a]pyridin-2-nitrile], the “inhibitory activity against JAK2 (in words)” value in experiment [1] is “relatively weak inhibitory activity”. Moreover, the IC50 was 10 to 100 nM in experiment [1] (12 uM ATP, 60 minutes, room temperature) and no more than 10 nM in experiment [2] (38 uM ATP, 90 minutes, room temperature). Also, the “inhibitory activity against JAK1 (in words)” value in experiment [2] was “strong inhibitory activity”. For the same molecule, the “selective inhibition (JAK1 versus JAK2, in words)” value in experiment [2] is recorded as “better selective inhibition for JAK”.
